Values quoted from earlier work as cited in patent publication US6903136B2, “Food supplements containing 4-hydroxyisoleucine and creatine” (Experimental and Applied Sciences, Inc., priority 2002, dated 2005).

Legend:
insulinotropic activity [1] = tested on: insulinotropic activity
secretion of insulin = conditions: in vitro
insulinotropic activity [2] = conditions: normal and diabetic rats; intravenous and oral delivery

For `CC(O)C(C)C(N)C(=O)O` (single isomer, unassigned) [(2R, 3R, 4S) isomer], the “activity as an insulinotropic agent” value (insulinotropic activity [1]) is given as “inactive”.
In the case of `CC1OC(=O)C(N)C1C` (stereo not shown) [lactone form of 4OH-Ile], the “activity as an insulinotropic agent” value (insulinotropic activity [1]) is listed as “not active”.
In the case of `CC(O)[C@H](C)[C@H](N)C(=O)O` (stereo partly shown) [Example 4OH-Ile, 4-Hydroxyisoleucine], the “effect on secretion of insulin” value (secretion of insulin; normal blood glucose levels) is listed as “does not affect the secretion of insulin”, the insulinotropic activity (secretion of insulin; supranormal glucose levels) is listed as “strong insulinotropic activity” and the “insulinotropic activity in vivo” value (insulinotropic activity [2]) is listed as “verified the insulinotropic activity in vivo”.
In the case of `C[C@@H]([C@H](C)O)[C@H](N)C(=O)O` (single isomer, unassigned) [(2S, 3R, 4S) stereoisomer of 4OH-Ile], the “activity as an insulinotropic agent” value (insulinotropic activity [1]) is listed as “active” and the “activity as an insulinotropic agent relative to leucine, isoleucine, or homoserine” value (insulinotropic activity [1]; fold more active than leucine, isoleucine, or homoserine) is listed as “at least 15 ×”.
